# Assay results from patent publication EP3345917A1, “ANTIPROTOZOAL COMPOUNDS” (Bacoba AG, priority 2017, dated 2018).
# Non-standard residues stand in square brackets, D forms with d. Residues, ends and D or L forms follow the SMILES beside them. *: point of attachment. Benzenesulfonyl(4-F) = O=S(=O)(c1ccc(F)cc1)*; Hexenoyl(2E,4S-Me) = CC[C@H](C)/C=C/C(=O)*; Leu(3R-OH) = CC(C)[C@@H](O)[C@H](N)C(=O)O; NH((S)CH(Me)CH2NMe2) = C[C@@H](CN(C)C)N*; Pro(4S-Me) = C[C@@H]1CN[C@H](C(=O)O)C1; Gly(octyl) = CCCCCCCC[C@H](N)C(=O)O; Nva(5-OH) = N[C@@H](CCCO)C(=O)O; Aib = CC(C)(N)C(=O)O; βAla = NCCC(=O)O
# Assays:
# [1] = tested on: Trypanosoma brucei rhodesiense (STIB 900 strain); test: Alamar Blue assay against Trypanosoma brucei rhodesiense grown in axenic medium; type: cell-based; conditions: In vitro inhibition, read-out: T.b.rhod.
# How it was run: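 Alamar Blue-based IC50 determination, in triplicate, on axenically grown STIB 900 trypanosomes. Melarsoprol included as reference.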
# [2] = tested on: Trypanosoma cruzi trypomastigote forms (Tulahuen strain); test: Intracellular Trypanosoma cruzi assay in L6-cells, beta-galactosidase/CPRG readout; type: cell-based; conditions: In vitro inhibition, read-out: T.cruzi.
# How it was run: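 Readout was β-galactosidase cleavage of CPRG, read photometrically at 540 nm after 2–6 h colour development, giving IC50 values. Parasites: LacZ-expressing Tulahuen C2C4 strain grown in rat L6 myoblasts; run in triplicate.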
# [3] = tested on: Axenically grown Leishmania donovani amastigotes (strain MHOM/ET/67/L82); test: Axenic Leishmania donovani amastigote resazurin assay; type: cell-based; conditions: In vitro inhibition, read-out: L.don. ax
# How it was run: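 IC50 values derive from resazurin fluorescence (ex 536 nm, em 588 nm), expressed relative to the negative control, after 2-4 hours of plate development. Axenic amastigotes of strain MHOM/ET/67/L82 were used; each test run in triplicate.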
# [4] = tested on: intracellular Leishmania donovani (L.don. InMac); test: Intracellular Leishmania donovani assay (L.don. InMac); type: cell-based; conditions: In vitro inhibition
# Source text: (§1) Tests were done in triplicate.
# Plasmodium falciparum = test: 3H-hypoxanthine incorporation assay against Plasmodium falciparum; type: cell-based; conditions: In vitro inhibition, read-out: P.falc NF5
# Method: as §1
# IC50 values were calculated by linear interpolation.
# [5] = Cytotoxicity assay on L6-cells (Alamar Blue); conditions: rat, Cytotox L6, Cytotoxicity against rat myoblast cells (L6)
SMILES,IC50 [1],IC50 [2],IC50 [3],IC50 [4],IC50 (Plasmodium falciparum),IC50 at 70 h [5]
"CCCCCCCC[C@H](NC(=O)[C@@H](NC(=O)[C@@H]1CCCN1C(=O)/C=C/[C@@H](C)CC)[C@H](O)C(C)C)C(=O)NC(C)(C)C(=O)N[C@@H](CC(C)C)C(=O)N[C@@H](CC(C)C)C(=O)NC(C)(C)C(=O)NC(C)(C)C(=O)NCCC(=O)N[C@@H](C)CN(C)C [Compound 5560, (2S)-N-(1-{[(1S)-1-{[(1S)-1-{[1-({1-[(2-{[(2S)-1-(dimethylamino)propan-2-yl]carbamoyl}ethyl)carbamoyl]-1-methylethyl}carbamoyl)-1-methylethyl]carbamoyl}-3-methylbutyl]carbamoyl}-3-methylbutyl]carbamoyl}-1-methylethyl)-2-[(2S,3R)-3-hydroxy-4-methyl-2-{[(2S)-1-[(2E,4S)-4-methylhex-2-enoyl]pyrrolidin-2-yl]formamido}pentanamido]decanamide] ({Hexenoyl(2E,4S-Me)}-P[Leu(3R-OH)][Gly(octyl)][Aib]LL[Aib][Aib][βAla]-{NH((S)CH(Me)CH2NMe2)})",0.2 nM,34.5 nM,0.8 nM,25.4 nM,1.1 nM,791 nM
"CC[C@H](C)/C=C/C(=O)N1C[C@@H](C)C[C@H]1C(=O)N[C@@H](CCCO)C(=O)N[C@H](C(=O)NC(C)(C)C(=O)N[C@@H](CC(C)C)C(=O)N[C@@H](CC(C)C)C(=O)NC(C)(C)C(=O)NC(C)(C)C(=O)NCCC(=O)N[C@@H](C)CN(C)C)[C@H](O)C(C)C [Compound 5496, (2S,3R)-N-(1-{[(1S)-1-{[(1S)-1-{[1-({1-[(2-{[(2S)-1-(dimethylamino)propan-2-yl]carbamoyl}ethyl)carbamoyl]-1-methylethyl}carbamoyl)-1-methylethyl]carbamoyl}-3-methylbutyl]carbamoyl}-3-methylbutyl]carbamoyl}-1-methylethyl)-3-hydroxy-2-[(2S)-5-hydroxy-2-{[(2S,4S)-4-methyl-1-[(2E,4S)-4-methylhex-2-enoyl]pyrrolidin-2-yl]formamido}pentanamido]-4-methylpentanamide] ({Hexenoyl(2E,4S-Me)}-[Pro(4S-Me)][Nva(5-OH)][Leu(3R-OH)][Aib]LL[Aib][Aib][βAla]-{NH((S)CH(Me)CH2NMe2)})",6.2 nM,5110 nM,467 nM,2680 nM,660 nM,5220 nM
"CCCCCCCC[C@H](NC(=O)[C@@H]1CCCN1S(=O)(=O)c1ccc(F)cc1)C(=O)N[C@@H](CC(C)C)C(=O)NC(C)(C)C(=O)N[C@@H](CC(C)C)C(=O)N[C@@H](CC(C)C)C(=O)NC(C)(C)C(=O)NC(C)(C)C(=O)NCCC(=O)N[C@@H](C)CN(C)C [Compound 5935, (2S)-N-[(1S)-1-[(1-{[(1S)-1-{[(1S)-1-{[1-({1-[(2-{[(2S)-1-(dimethylamino)propan-2-yl]carbamoyl}ethyl)carbamoyl]-1-methylethyl}carbamoyl)-1-methylethyl]carbamoyl}-3-methylbutyl]carbamoyl}-3-methylbutyl]carbamoyl}-1-methylethyl)carbamoyl]-3-methylbutyl]-2-{[(2S)-1-(4-fluorobenzenesulfonyl)pyrrolidin-2-yl]formamido}decanamide] ({Benzenesulfonyl(4-F)}-P[Gly(octyl)]L[Aib]LL[Aib][Aib][βAla]-{NH((S)CH(Me)CH2NMe2)})",42400 nM,33.5 nM,14500 nM,< 33.5 nM,47300 nM,384 nM
